Data from a melting point compilation (Tetko et al.; mined from patent text by program, amines drawn as free bases though some values may be those of a salt).

Compound	melting point [°C]
O=C(O)C1CNC(C(=O)O)c2[nH]c3ccc(F)cc3c21 (configuration not stated)	233 to 234
CNC(=O)c1ccc(-c2ccc3nnn(Cc4ccc5ncccc5c4)c3n2)cc1	220 to 222
O=C(c1ccc(Nc2ccnc3cc(C(F)(F)F)ccc23)cc1)N1CCC(S(=O)c2ccc(F)cc2)CC1 (configuration not stated)	215 to 216
COc1c([N+](=O)[O-])cc(C(C)=O)c2c1CCCC2	76 to 77
c1cc2c(cc1OCC1CCCCC1)CCCCC2	62 to 63
Cc1nccn1-c1nc(Cl)c(-c2ccccc2)c2ccccc12	167 to 168
Cc1nc(N2CCCC2)nc(C)c1-c1cccc2c1OC[C@H]2Nc1ccc2c(c1)OC[C@H]2CC(=O)O	169
NC(=O)N(O)Cc1ccoc1	125 to 128
O=[N+]([O-])c1cc(Br)cc(OCCF)c1	59 to 61
O=c1[nH]c(Cc2ccccc2)ccc1CCl	142 to 145
C[C@H]1[C@@H](O)[C@H](Cc2ccccc2)C(=O)N1c1ccc(C#N)c(Cl)c1	99 to 101
COc1ncc(F)c2n[nH]c(=S)n12	166
CN(C(C(=O)NO)C(C)(C)CN1C(=O)c2ccccc2C1=O)S(=O)(=O)c1ccc(Oc2ccccc2)cc1 (configuration not stated)	189 to 190
Cn1c(=O)oc2c3ncccc3c(Cl)cc21	219 to 221
C(C#Cc1cccc2ccccc12)#Cc1cccc2ccccc12	176 to 177
CN1CCC(=O)N(c2ccccc2)c2cc(Cl)ccc21	143 to 144
COc1cc2nc(N3CCOCC3)n3cnnc3c2cc1OC	216 to 218
CCCCNc1n[nH]c(C)c1C(=O)OCC	109 to 110
CNc1nc(-c2ccc(OC)cc2)c(-c2cccnc2)s1	158 to 159
COc1ccc(C2=NN(c3ccc(CC(=O)O)cc3)C(=O)C(C)(C)C2)cc1OC	186 to 188
CC(C)(C)C(=O)c1c[nH]c2ncc(-c3cccc(N4CC5(COC5)C4)c3)nc12	260 to 262

Compound	melting point [°C]
CCOC(=O)C(C(=O)OCC)C(NC(C)=O)[PH](=O)O (configuration not stated)	113 to 114
Clc1cccc(Oc2ccc(OCc3cc(C4CC4)no3)cc2)n1	128 to 130
CC1=NN(C)c2nc(C)c(CCCl)c(=O)n2C1	180
COc1ccc(C(=NO)c2ccccc2F)c(O)c1C	167 to 169
CC(C)(C)[C@H]1CC[C@@H](Nc2nnc(Cc3ccncc3)c3ccccc23)CC1	64 to 65
CCCOc1ccc(C(=O)OC)cc1-c1ccc(C#N)c(=O)[nH]1	201 to 203
Cc1nn(CC(F)(F)F)c(C(=O)O)c1[N+](=O)[O-]	135 to 138
CCOC(=O)c1cn(Cc2ccccc2)nc1OCc1ccc(OCc2nc(-c3ccco3)oc2C)c(Br)c1	158 to 159
O=C(Nc1cc(CO)cc(Nc2c3ccccc3nc3ccccc23)c1)Oc1ccc(N(CCCl)CCCl)cc1	241 to 242
CNC(=O)N(O)C(C)c1ccc(Cl)c(C)c1 (configuration not stated)	99 to 102
O=c1c(-c2ccc(NS(=O)(=O)c3ccccc3)cc2)coc2cc(O)c(O)cc12	285 to 286
CCNC(=O)NSC(=S)N(C)C	173 to 175
COc1cc(Nc2c(C#N)cnc3cc4cc(OCCCN5CCOCC5)c(OC)cc4cc23)c(Cl)cc1Cl	205 to 208
CS(=O)c1ccc(-c2ccc(-c3ccc(F)cc3)s2)s1 (configuration not stated)	153 to 157
COC(=O)c1sc(C)c(Br)c1SC(=O)N(C)C	175 to 176
COC(=O)c1ccc(S(=O)Cc2cccc(Cl)c2)cn1 (configuration not stated)	75 to 77
CCCCCCc1ccc2c3ccc(CO)cc3n(C)c2c1	90 to 91
Cc1cc(C2=NOC(c3cc(Cl)cc(Cl)c3)(C(F)(F)F)C2)ccc1C(=O)Nc1ccc(Cl)cn1 (configuration not stated)	129 to 132
CCC(=O)c1cc(C(=O)C(=O)c2cccc(OC)c2)cn1CC	97
Cc1cn(N=Cc2cccnc2)c(=O)n1C	186 to 187
COc1ccc(Nc2ncnc3cc(Cl)ccc23)cc1	177 to 179

Compound	melting point [°C]
CCOC(=O)c1[nH]c2ccc(C[C@H]3COC(=O)N3)cc2c1CCN(C)C	49 to 55
O=C(NCCc1ccc([N+](=O)[O-])cc1)C(F)(F)F	96 to 97
Nc1nc(S(N)=O)c2[nH]cnc2n1 (configuration not stated)	> 250
CCCCc1nc2cccc(C(=O)OC)c2n1Cc1ccc(-c2ccccc2N2CC(=O)NC2=O)cc1	149 to 151
CCOC(=O)c1cc(-c2ccc(C#N)cc2)[nH]c1N	228 to 229
O=C1C(=Cc2ccncc2)CCc2cc(OCCn3ccnc3)ccc21	128 to 129
CCCCCCCCCCCCCCCCCCCCC(NC(C)=O)(C(=O)OCC)C(=O)OCC	76.5 to 77.5
CC(NC(=C(C#N)S(=O)(=O)c1ccc(Cl)cc1)N(C)c1cc(C(F)(F)F)cc(C(F)(F)F)c1)C(C)(C)C (configuration not stated)	152 to 154
CCOC(=O)c1ccccc1-c1cc(-c2ccc(Cl)cc2Cl)no1	85 to 86
CC(C)NC(Nc1cc(C(F)(F)F)cc(C(F)(F)F)c1)=C(C#N)S(=O)(=O)c1ccc(Cl)cc1	197 to 198
Cc1cc(C)c(-n2nnc3c(-c4ccccc4C(F)(F)F)nc(C)nc32)c(C)c1	139
Cc1cccc(C(=O)OCC=Cc2ccccc2)c1O	154
COc1ccc(C2(c3ccc(N(C)C)cc3N(C)C)OC(=O)c3cc(N(C)C)ccc32)cc1 (configuration not stated)	90 to 94
N#CCCC1CN(C(=O)OCc2ccccc2)CCO1 (configuration not stated)	59 to 60
Cc1cc(C)cc(-c2c(-c3ccncc3)sc3nc(=O)cc(N)n23)c1	275 to 278
CC(=O)Oc1ccccc1C(=O)SC(C)C(=O)NCC(=O)O (configuration not stated)	100 to 102
CC1CCCc2cc([N+](=O)[O-])cnc21 (configuration not stated)	61 to 63
Cc1cccc(N2Cc3ccccc3P2(=O)C(C)C)c1 (configuration not stated)	112 to 113
C=CCN1C(=O)C(O)(CC(=O)N(C)C)c2cc(CO)ccc21 (configuration not stated)	125
CC(C)(C)OC(=O)NC(Cc1ccccc1)C(=O)Oc1ccc2ccccc2c1 (configuration not stated)	118 to 119

Second part, the compound after the results:

melting point [°C]	Compound
218 to 221	COc1ccc(-n2c(N)nc3ccccc32)cc1-c1ccco1
132 to 133	CCCN(Cc1cccc(-c2noc(C)n2)c1)C(=O)Cc1ccc(-c2ccccc2S(=O)(=O)NC(C)(C)C)cc1
221 to 224	COc1ccc(-c2csc(Nc3ccc4ccccc4c3)n2)cc1OC
64 to 65.5	CCCCCCCCCCCCCCCCCC(=O)Oc1cc(C)c(O)c(C(C)(C)C)c1
98	O=C1c2ccccc2C(=O)N1OCCCN1CCOCC1
155 to 156	CC(C)(C)OC(=O)N1CCN(C(=O)c2cc(C(F)(F)F)cc(C(F)(F)F)c2)[C@H](Cc2c[nH]c3ccccc23)C1
188 to 190	CCn1ncc2c(NCC3CCC(CO)CC3)c3ccccc3nc21 (configuration not stated)
153 to 156	COc1ccc(C2=NN(c3ccccc3)C(c3ccc(NC(=S)Nc4ccccc4)cc3)C2)cc1 (configuration not stated)
59 to 62.5	Cc1ccc(S(=O)(=O)N(F)C(C)(C)C)cc1
87 to 90	O=C(O)C1=COCC(C(=O)O)=C1
127 to 128	COC(=O)C(Cc1ccc(OC)c(C(=O)NCc2ccc(C(F)(F)F)cc2)c1)SC (configuration not stated)
196 to 197	CC(C#N)(CNC(=O)c1n[nH]cc1NC(=O)c1ccccn1)Cc1ccccc1 (configuration not stated)
80 to 82	COC(=O)C(CC(C)C)NC(=O)C(CC(C)C)NC(=O)OCc1ccccc1 (configuration not stated)
150 to 151	CCN(CC)CCOc1ccc(Nc2ncc3c(n2)N(C)C(=O)N(c2ccccc2Cl)C3)cc1
136	CN1C(=O)N2CCOC2(c2ccccc2)c2cc([N+](=O)[O-])ccc21 (configuration not stated)
199 to 201	Cc1cccc(N2CCN(CCCCc3ccc(C(=O)CCC(=O)O)cc3)CC2)c1
120 to 121	O=c1c(Br)cn(Cc2ccccc2)cc1Cc1ccccc1
189 to 191	CC1(CN)CCN(c2c(F)cc3c(=O)c(C(=O)O)cn(C4CC4)c3c2Cl)C1 (configuration not stated)
230 to 235	O=C(Cn1cnc2ccccc21)Nc1ccc(-n2nc(C3CC3)cc2C2CC2)cc1
127 to 129	CNS(=O)(=O)Cc1ccc2[nH]ccc2c1

melting point [°C]	Compound
69	C=CCc1cc(C=C(C(=O)OCC)C(=O)OCC)ccc1OC
178 to 180	CC(=O)c1cc2nc(S(=O)Cc3nccc4c3OCO4)[nH]c2cc1C (configuration not stated)
108 to 110	CCOC(=O)C1CN(C(=O)c2cc(OC)c(OC)c(OC)c2)CCN1C(=O)C1=Cc2cc(OC)c(OC)cc2CCC1 (configuration not stated)
108 to 109	N#CC1=Cc2ccc(OCc3ccccc3)cc2OC1
155	O=C(NCCc1ccccn1)c1ccccc1-c1ccccc1CN1C(=O)c2ccccc2C1=O
111 to 113	COC(=O)CCCCC(=O)N(O)c1ccc2ccccc2c1O
150	c1ccc(COc2ccc(-c3cc(NC(Cc4ccccc4)c4nnn[nH]4)ncn3)cc2)cc1 (configuration not stated)
63 to 65	Cc1cnc(C#N)c(Cl)n1
184 to 186	Clc1ncnc2c1c(I)cn2C1CCOC1 (configuration not stated)
> 250	C=C=Cn1c(=O)sc2cc(F)c(-n3c(=O)cc(C)n(C)c3=O)cc21
198 to 203	CC(C)(C)OC(=O)N1CCN(c2ccnc3sc(C(N)=O)c(N)c23)CC1
242 to 244	COc1ccc(C=C2NC(=O)NC2=O)cc1
184	Cc1c(C(=O)Nc2ccc(N3CCNCC3)c(C#N)c2)cnn1-c1ccc(Cl)cc1
72 to 73	COC(=O)c1cc(Cl)c(I)cc1OC
95 to 96	CCCN1N=C(c2ccc(OC)c(OC)c2)[C@@H]2CCCC[C@@H]2C1=O (relative stereo)
60 to 62	CC(C)[C@H]1COC(=O)N1C(=O)[C@@H](CC(=O)N(C)Cc1ccccc1)Cc1ccccc1
182 to 186	CCCCOC(=O)c1c(-c2ccncc2)[nH]c(-c2ccncc2)c1C
101 to 102	O=C(CCl)Nc1ccccc1C1C=CCC1 (configuration not stated)
150 to 152	N#Cc1c(NCc2ccccc2)n[nH]c1N
75	O=C(c1ccccc1)c1cc([N+](=O)[O-])ccc1NC1CCCCC1
